{"source": "ChEMBL document CHEMBL4130623", "about": "“Discovery of Highly Potent Pinanamine-Based Inhibitors against Amantadine- and Oseltamivir-Resistant Influenza A Viruses” (J Med Chem, 2018)", "experiment_in_all_cases": "microbe, parasite or virus in culture", "assay_type_in_all_cases": "functional, organism-based", "conditions_in_all_cases": "A/Guangzhou/GIRD/07/2009 (H1N1), MDCK", "key": {"Influenza A virus [1]": {"system": "Influenza A virus"}, "Influenza A virus [2]": {"system": "Influenza A virus", "remark": "listed apart in the source"}, "Influenza A virus [3]": {"system": "Influenza A virus", "remark": "listed apart in the source"}, "Influenza A virus [4]": {"system": "Influenza A virus", "remark": "listed apart in the source"}, "Influenza A virus [5]": {"system": "Influenza A virus", "remark": "listed apart in the source"}, "Influenza A virus [6]": {"system": "Influenza A virus", "remark": "listed apart in the source"}, "Influenza A virus [7]": {"system": "Influenza A virus", "remark": "listed apart in the source"}, "Influenza A virus [8]": {"system": "Influenza A virus", "remark": "listed apart in the source"}, "Influenza A virus [9]": {"system": "Influenza A virus", "remark": "listed apart in the source"}}, "note": "pEC50: −log10 of the molar value."}
{"compound": "C[C@@H]1C2CC(C[C@H]1NCc1sccc1C1CC1)C2(C)C", "note": "(single isomer, unassigned)", "values": [{"measurement": "pEC50", "setting": "Influenza A virus [1]", "value": 5.77}, {"measurement": "pEC50", "setting": "Influenza A virus [2]", "value": 6.49}, {"measurement": "pEC50", "setting": "Influenza A virus [3]", "value": "< 4.37"}, {"measurement": "pEC50", "setting": "Influenza A virus [4]", "value": "< 4.37"}, {"measurement": "pEC50", "setting": "Influenza A virus [5]", "value": 4.59}, {"measurement": "pEC50", "setting": "Influenza A virus [6]", "value": 4.86}, {"measurement": "pEC50", "setting": "Influenza A virus [7]", "value": 6.47}, {"measurement": "pEC50", "setting": "Influenza A virus [8]", "value": 5.06}, {"measurement": "pEC50", "setting": "Influenza A virus [9]", "value": "< 4.37"}]}
